# What was measured:
# Type in all cases: in vivo
# [1] = tested on: bromegrass, downy (downy bromegrass, Bromus tectorum); assay: Test C pre-/postemergence: bromegrass, downy
# Outline: (§1)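 Visual injury scored 0–100 (100 = complete control) against untreated controls after 13–15 greenhouse days. Surfactant-containing solvent formulations applied either to soil after sowing (loam/sand) or over 1- to 4-leaf plants, 2–18 cm tall.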
# [2] = tested on: Russian thistle (Salsola kali); assay: Test C pre-/postemergence: Russian thistle; settings: Preemergence
# From the text: Seeds of plant species selected from blackgrass (Alopecurus myosuroides), bromegrass, downy (downy bromegrass, Bromus tectorum), foxtail, green (green foxtail, Setaria viridis), ryegrass, Italian (Italian ryegrass, Lolium multiflorum), winter wheat (Triticum aestivum), wild oat (Avena fatua), galium (catchweed bedstraw, Galium aparine), bermudagrass (Cynodon dactylon), surinam grass (Brachiaria decumbens), cocklebur (common cocklebur, Xanthium strumarium), corn (Zea mays), large crabgrass (Digitaria sanguinalis), woolly cupgrass (Eriochloa villosa), foxtail, giant (giant foxtail, Setaria faberii), goosegrass (Eleusine indica), johnsongrass (Sorghum halepense), kochia (Kochia scoparia), lambsquarters (Chenopodium album), morningglory (Ipomoea coccinea), nightshade (eastern black nightshade, Solanum ptycanthum), nutsedge, yellow (yellow nutsedge, Cyperus esculentus), pigweed (Amaranthus retroflexus), ragweed (common ragweed, Ambrosia elation), soybean (Glycine max), common (oilseed) sunflower (Helianthus annuus), Russian thistle (Salsola kali) and velvetleaf (Abutilon theophrasti) were planted into a blend of loam soil and sand and treated preemergence with test chemicals formulated in a non-phytotoxic solvent mixture which included a surfactant.
# At the same time, plants selected from these crop and weed species and also barley (winter barley, Hordeum vulgare), canarygrass (Phalaris minor), chickweed (common chickweed, Stellaria media) windgrass (Apera spica-venti) and deadnettle (henbit deadnettle, Lamium amplexicaule) were planted in pots containing Redi-Earth® planting medium (Scotts Company, 14111 Scottslawn Road, Marysville, Ohio 43041) comprising spaghnum peat moss, vermiculite, wetting agent and starter nutrients and treated with postemergence applications of test chemicals formulated in the same manner. Plants ranged in height from 2 to 18 cm (1- to 4-leaf stage) for postemergence treatments.
# Treated plants and controls were maintained in a greenhouse for 13 to 15 days, after which time all species were compared to controls and visually evaluated. Plant response ratings, summarized in Table C, are based on a scale of 0 to 100 where 0 is no effect and 100 is complete control. A dash (-) response means no test result.
# [3] = tested on: barley (winter barley, Hordeum vulgare); assay: Test C postemergence: barley
# Outline: (§2)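 Response values are visual ratings, 0 (no effect) to 100 (complete control), made by comparison with untreated controls 13 to 15 days after postemergence treatment of greenhouse-grown potted plants that were 2 to 18 cm high at spraying.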
# [4] = tested on: windgrass (Apera spica-venti); assay: Test C postemergence: windgrass
# Outline: as §2
# [5] = tested on: galium (catchweed bedstraw, Galium aparine); assay: Test D pre-/postemergence: galium
# Outline: (§3)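 Applied as a non-phytotoxic solvent formulation with surfactant, compounds were tested preemergence in silt loam and postemergence on seedlings 2 to 18 cm high in peat-vermiculite medium. Evaluation was visual, 0 meaning no effect and 100 complete control, at 14 to 21 days.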
# [6] = tested on: oilseed rape (Brassica napus); assay: Test D pre-/postemergence: oilseed rape
# Outline: as §3
# [7] = tested on: lambsquarters (Chenopodium album); assay: Test D pre-/postemergence: lambsquarters
# Outline: as §3
# [8] = tested on: surinam grass (Brachiaria decumbens); assay: Test C pre-/postemergence: surinam grass
# Outline: as §1
# [9] = tested on: foxtail, green (green foxtail, Setaria viridis); assay: Test C pre-/postemergence: foxtail, green
# Outline: as §1
# [10] = tested on: pigweed (Amaranthus retroflexus); assay: Test D pre-/postemergence: pigweed
# Outline: as §3
# [11] = Postemergence, 31 g ai/ha, scale 0 to 100 (0 no effect, 100 complete control)
# [12] = Postemergence, 62 g ai/ha, scale 0 to 100 (0 no effect, 100 complete control)
# [13] = Postemergence, 125 g ai/ha, scale 0 to 100, 0 no effect, 100 complete control
# [14] = Postemergence, 250 g ai/ha, scale 0 to 100
# [15] = Preemergence, 31 g ai/ha, scale of 0 to 100, 0 is no effect, 100 is complete control
# [16] = Preemergence, 125 g ai/ha, scale 0 to 100, 0 no effect, 100 complete control
# [17] = Preemergence, 250 g ai/ha, scale 0 to 100, 0 no effect, 100 complete control
# [18] = 62 g ai/ha, scale of 0 to 100, 0 is no effect, 100 is complete control
# [19] = 125 g ai/ha, scale 0 to 100, 0 no effect, 100 complete control
# [20] = 250 g ai/ha, scale 0 to 100, 0 no effect, 100 complete control
# [21] = 62 g ai/ha, scale 0 to 100 (0 no effect, 100 complete control)
# [22] = 31 g ai/ha, scale 0 to 100 (0 no effect, 100 complete control)
# [23] = Postemergence, 250 g ai/ha, scale 0 to 100 (0 no effect, 100 complete control)
# [24] = Postemergence, 16 g ai/ha, scale 0 to 100
# [25] = Preemergence, 16 g ai/ha, scale 0 to 100 (0 no effect, 100 complete control)
# [26] = Preemergence, 31 g ai/ha, scale 0 to 100 (0 no effect, 100 complete control)
# [27] = Preemergence, 125 g ai/ha, scale 0 to 100
# [28] = Preemergence, 250 g ai/ha, scale 0 to 100
# [29] = Preemergence, 62 g ai/ha, scale 0 to 100
# [30] = Preemergence, 62 g ai/ha, scale of 0 to 100, 0 is no effect, 100 is complete control
compound,measurement,setting,value
"Cc1nn(-c2ccc(F)cc2)nc1Cc1ccnc(C(F)(F)F)c1 [Compound 16, 4-[[2-(4-fluorophenyl)-5-methyl-2H-1,2,3-triazol-4-yl]methyl]-2-(trifluoromethyl)pyridine]","Plant response rating, Bromegrass, Downy",[1]; [11],15
same,"Plant response rating, Bromegrass, Downy",[1]; [12],15
same,"Plant response rating, Bromegrass, Downy",[1]; [13],25
same,"Plant response rating, Bromegrass, Downy",[1]; [14],25
same,"Plant response rating, Bromegrass, Downy",[1]; [15],5
same,"Plant response rating, Bromegrass, Downy","[1]; Preemergence, 62 g ai/ha, scale 0 to 100, 0 no effect, 100 complete control",10
same,"Plant response rating, Bromegrass, Downy",[1]; [16],50
same,"Plant response rating, Bromegrass, Downy",[1]; [17],100
same,"Plant response rating, Russian Thistle","[2]; 31 g ai/ha, scale of 0 to 100, 0 is no effect, 100 is complete control",45
same,"Plant response rating, Russian Thistle",[2]; [18],100
same,"Plant response rating, Russian Thistle",[2]; [19],100
same,"Plant response rating, Russian Thistle",[2]; [20],100
same,"Plant response rating, Barley",[3]; [21],35
same,"Plant response rating, Barley",[3]; [19],45
same,"Plant response rating, Barley","[3]; 250 g ai/ha, scale 0 to 100",45
same,"Plant response rating, Windgrass",[4]; [22],45
same,"Plant response rating, Windgrass",[4]; [21],50
same,"Plant response rating, Windgrass",[4]; [19],50
same,"Plant response rating, Windgrass","[4]; 250 g ai/ha, scale 0 to 100",50
same,Plant response rating: Galium,[5]; [11],40
same,Plant response rating: Galium,[5]; [12],50
same,Plant response rating: Galium,[5]; [13],60
same,Plant response rating: Galium,[5]; [23],70
same,"Plant response rating, Galium",[5]; [24],20
same,"Plant response rating, Galium",[5]; [25],0
same,"Plant response rating, Galium",[5]; [26],0
same,"Plant response rating, Galium",[5]; [27],20
same,"Plant response rating, Galium",[5]; [28],20
same,Plant response rating: Oilseed Rape,[6]; [11],70
same,Plant response rating: Oilseed Rape,[6]; [12],95
same,Plant response rating: Oilseed Rape,[6]; [13],100
same,Plant response rating: Oilseed Rape,[6]; [23],100
same,"Plant response rating, Oilseed Rape",[6]; [24],40
same,"Plant response rating, Oilseed Rape",[6]; [25],0
same,"Plant response rating, Oilseed Rape",[6]; [26],0
same,"Plant response rating, Oilseed Rape",[6]; [29],50
same,"Plant response rating, Oilseed Rape",[6]; [27],50
same,"Plant response rating, Oilseed Rape",[6]; [28],100
same,Plant response rating: Lambsquarters,[7]; [11],80
same,Plant response rating: Lambsquarters,[7]; [12],100
same,Plant response rating: Lambsquarters,[7]; [13],100
same,Plant response rating: Lambsquarters,[7]; [23],100
same,"Plant response rating, Lambsquarters",[7]; [24],75
same,"Plant response rating, Lambsquarters",[7]; [25],30
same,"Plant response rating, Lambsquarters",[7]; [26],50
same,"Plant response rating, Lambsquarters",[7]; [29],80
same,"Plant response rating, Lambsquarters",[7]; [27],95
same,"Plant response rating, Lambsquarters",[7]; [28],100
same,"Plant response rating, Surinam Grass",[8]; [11],5
same,"Plant response rating, Surinam Grass",[8]; [12],5
same,"Plant response rating, Surinam Grass",[8]; [13],10
same,"Plant response rating, Surinam Grass",[8]; [14],45
same,"Plant response rating, Foxtail, Green",[9]; [11],30
same,"Plant response rating, Foxtail, Green",[9]; [12],98
same,"Plant response rating, Foxtail, Green",[9]; [13],98
same,"Plant response rating, Foxtail, Green",[9]; [15],100
same,"Plant response rating, Foxtail, Green",[9]; [30],100
same,"Plant response rating, Foxtail, Green",[9]; [16],100
same,"Plant response rating, Foxtail, Green",[9]; [17],100
same,Plant response rating: Pigweed,[10]; [11],70
same,Plant response rating: Pigweed,[10]; [12],80
same,Plant response rating: Pigweed,[10]; [13],90
same,Plant response rating: Pigweed,[10]; [23],100
same,"Plant response rating, Pigweed",[10]; [24],50
same,"Plant response rating, Pigweed",[10]; [25],25
same,"Plant response rating, Pigweed",[10]; [26],80
same,"Plant response rating, Pigweed",[10]; [29],80
same,"Plant response rating, Pigweed",[10]; [27],90
same,"Plant response rating, Pigweed",[10]; [28],100
Fc1ccc(-n2nc(Cc3ccnc(C(F)(F)F)c3)c(OCC(F)(F)F)n2)cc1 [Compound 142],"Plant response rating, Bromegrass, Downy",[1]; [11],25
same,"Plant response rating, Bromegrass, Downy",[1]; [12],45
same,"Plant response rating, Bromegrass, Downy",[1]; [13],45
same,"Plant response rating, Bromegrass, Downy",[1]; [14],50
same,"Plant response rating, Bromegrass, Downy",[1]; [15],20
same,"Plant response rating, Bromegrass, Downy",[1]; [30],60
same,"Plant response rating, Bromegrass, Downy",[1]; [16],90
same,"Plant response rating, Bromegrass, Downy",[1]; [17],90
same,"Plant response rating, Russian Thistle",[2]; [18],80
same,"Plant response rating, Russian Thistle",[2]; [19],90
same,"Plant response rating, Russian Thistle",[2]; [20],90
same,"Plant response rating, Barley",[3]; [22],20
same,"Plant response rating, Barley",[3]; [21],35
same,"Plant response rating, Barley",[3]; [19],40
same,"Plant response rating, Barley","[3]; 250 g ai/ha, scale 0 to 100",45
same,"Plant response rating, Windgrass",[4]; [22],80
same,"Plant response rating, Windgrass",[4]; [21],80
same,"Plant response rating, Windgrass",[4]; [19],85
same,"Plant response rating, Windgrass","[4]; 250 g ai/ha, scale 0 to 100",95
same,"Plant response rating, Surinam Grass",[8]; [11],40
same,"Plant response rating, Surinam Grass",[8]; [12],40
same,"Plant response rating, Surinam Grass",[8]; [13],45
same,"Plant response rating, Surinam Grass",[8]; [14],50
same,"Plant response rating, Surinam Grass",[8]; [15],60
same,"Plant response rating, Surinam Grass",[8]; [30],75
same,"Plant response rating, Surinam Grass",[8]; [16],98
same,"Plant response rating, Surinam Grass",[8]; [17],98
same,"Plant response rating, Foxtail, Green",[9]; [11],100
same,"Plant response rating, Foxtail, Green",[9]; [12],100
same,"Plant response rating, Foxtail, Green",[9]; [13],100
same,"Plant response rating, Foxtail, Green",[9]; [14],100
same,"Plant response rating, Foxtail, Green",[9]; [15],90
same,"Plant response rating, Foxtail, Green",[9]; [30],90
same,"Plant response rating, Foxtail, Green",[9]; [16],90
same,"Plant response rating, Foxtail, Green",[9]; [17],90

# Reference: patent publication US9302999B2, “Substituted triazoles as herbicides” (E. I. DU PONT DE NEMOURS AND COMPANY, priority 2012, dated 2016)
